T1: SapC (saposin C) (Homo sapiens, UniProt P07602)
T1 sequence (P07602 311-390 limits assumed): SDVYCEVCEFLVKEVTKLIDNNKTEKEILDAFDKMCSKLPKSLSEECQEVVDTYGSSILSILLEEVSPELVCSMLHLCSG

T2: acid β-glucosidase (GCase), Velaglucerase alfa (human, UniProt P04062 40-536, mannosyl-terminated oligosaccharide chains)
T2 sequence (looked up): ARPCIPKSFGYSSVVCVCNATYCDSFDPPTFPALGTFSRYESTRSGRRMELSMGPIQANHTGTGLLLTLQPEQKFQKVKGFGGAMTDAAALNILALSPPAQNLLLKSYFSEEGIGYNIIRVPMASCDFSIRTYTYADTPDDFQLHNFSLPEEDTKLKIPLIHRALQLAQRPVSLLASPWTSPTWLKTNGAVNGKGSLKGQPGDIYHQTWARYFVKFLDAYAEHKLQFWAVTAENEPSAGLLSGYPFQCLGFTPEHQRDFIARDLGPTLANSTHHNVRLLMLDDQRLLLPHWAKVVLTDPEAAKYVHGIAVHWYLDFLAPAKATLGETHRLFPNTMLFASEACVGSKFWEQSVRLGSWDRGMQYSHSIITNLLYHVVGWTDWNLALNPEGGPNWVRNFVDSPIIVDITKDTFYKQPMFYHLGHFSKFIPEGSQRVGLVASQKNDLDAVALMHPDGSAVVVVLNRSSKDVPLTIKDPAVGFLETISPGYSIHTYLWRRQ


Tests used:
[1] = target: T1, SapC (saposin C); test: microscale thermophoresis; assay type: binding
[2] = target: T2, acid β-glucosidase (GCase), …; test: MST

Kd [2] [nM] | Molecule | Kd [1] [nM]
 | CCCCCCCC/C=C\CCCCCCCC(=O)OC[C@H](COP(=O)(O)OC[C@H](N)C(=O)O)OC(=O)CCCCCCC/C=C\CCCCCCCC [DOPS] | 13.5 ± 1.65
29.4 ± 1.91 | saposin C (SapC) (natural protein, UniProt P07602 311-390, looked up) SDVYCEVCEFLVKEVTKLIDNNKTEKEILDAFDKMCSKLPKSLSEECQEVVDTYGSSILSILLEEVSPELVCSMLHLCSG | 
